Test results taken from ChEMBL document CHEMBL1141939, “Structure-activity relationship studies on a series of cyclohexylpiperazines bearing a phanylacetamide as ligands of the human melanocortin-4 receptor” (Bioorg Med Chem Lett, 2005).

Legend:
Melanocortin receptor 4 [1] = target: T1, Melanocortin receptor 4 (Homo sapiens, UniProt P32245); experiment: biochemical; type: cell-based, HEK293
Description: Displacement of [125I]NDP-MSH from human MC4R expressed in HEK293 cells

Melanocortin receptor 4 [2] = target: T1, Melanocortin receptor 4; experiment: cAMP stimulation in HEK293 cells transfected with human MC4R; type: functional, cell-based

T1 sequence (P32245 whole entry): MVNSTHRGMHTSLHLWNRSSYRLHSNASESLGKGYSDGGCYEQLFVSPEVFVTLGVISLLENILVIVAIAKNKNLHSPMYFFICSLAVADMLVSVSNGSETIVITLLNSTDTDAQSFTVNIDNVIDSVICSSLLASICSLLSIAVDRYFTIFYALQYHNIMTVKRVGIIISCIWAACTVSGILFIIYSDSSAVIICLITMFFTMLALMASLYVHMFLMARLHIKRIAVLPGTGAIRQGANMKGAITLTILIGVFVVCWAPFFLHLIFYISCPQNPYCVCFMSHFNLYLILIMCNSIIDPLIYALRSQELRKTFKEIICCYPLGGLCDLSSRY

Compound: CC(C)COC(=O)N[C@H](Cc1ccc(Cl)cc1)C(=O)N1CCN(C2(CNC(=O)Cc3ccccc3)CCCCC2)CC1
- Ki (Melanocortin receptor 4 [1]): 280 nM

Compound: O=C(Cc1ccccc1)NCC1(N2CCN(C(=O)[C@@H](Cc3ccc(Cl)cc3)NC(=O)[C@H]3Cc4ccccc4CN3)CC2)CCCCC1
- EC50 (Melanocortin receptor 4 [2]): 33 nM
- Emax (Melanocortin receptor 4 [2]): 96%
- Ki (Melanocortin receptor 4 [1]): 16 nM

Compound: CC(C)(C)CC(=O)N[C@H](Cc1ccc(Cl)cc1)C(=O)N1CCN(C2(CNC(=O)Cc3ccccc3)CCCCC2)CC1
- EC50 (Melanocortin receptor 4 [2]): 570 nM
- Emax (Melanocortin receptor 4 [2]): 43%
- Ki (Melanocortin receptor 4 [1]): 750 nM

Compound: O=C(Cc1ccccc1)NCC1(N2CCN(C(=O)[C@@H](Cc3ccc(Cl)cc3)NC(=O)C3Cc4ccccc4N3)CC2)CCCCC1 (stereo partly specified)
- EC50 (Melanocortin receptor 4 [2]): 360 nM
- Emax (Melanocortin receptor 4 [2]): 22%
- Ki (Melanocortin receptor 4 [1]): 210 nM

Compound: CCCC(=O)N[C@H](Cc1ccc(Cl)cc1)C(=O)N1CCN(C2(CNC(=O)Cc3ccccc3)CCCCC2)CC1
- Ki (Melanocortin receptor 4 [1]): 210 nM

Compound: O=C(Cc1ccccc1)NCC1(N2CCN(C(=O)[C@@H](Cc3ccc(Cl)cc3)NC(=O)c3ccccc3)CC2)CCCCC1
- Ki (Melanocortin receptor 4 [1]): 84 nM

Compound: CC(C)CC(=O)N[C@H](Cc1ccc(Cl)cc1)C(=O)N1CCN(C2(CNC(=O)Cc3ccccc3)CCCCC2)CC1
- Ki (Melanocortin receptor 4 [1]): 270 nM

Compound: O=C(Cc1ccccc1)NCC1(N2CCN(C(=O)[C@@H](Cc3ccc(Cl)cc3)NC(=O)Cc3ccccc3F)CC2)CCCCC1
- Ki (Melanocortin receptor 4 [1]): 180 nM

Compound: O=C(Cc1ccccc1)NCC1(N2CCN(C(=O)[C@@H](Cc3ccc(Cl)cc3)NC(=O)C3NCc4ccccc43)CC2)CCCCC1 (stereo partly specified)
- EC50 (Melanocortin receptor 4 [2]): 440 nM
- Emax (Melanocortin receptor 4 [2]): 43%
- Ki (Melanocortin receptor 4 [1]): 99 nM

Compound: O=C(Cc1ccccc1)NCC1(N2CCN(C(=O)[C@@H](Cc3ccc(Cl)cc3)NC(=O)c3ccc(F)cc3)CC2)CCCCC1
- Ki (Melanocortin receptor 4 [1]): 97 nM

Compound: O=C(Cc1ccccc1)NCC1(N2CCN(C(=O)[C@@H](Cc3ccc(Cl)cc3)NC(=O)C3CCC3)CC2)CCCCC1
- Ki (Melanocortin receptor 4 [1]): 140 nM

Compound: NC(C(=O)N[C@H](Cc1ccc(Cl)cc1)C(=O)N1CCN(C2(CNC(=O)Cc3ccccc3)CCCCC2)CC1)c1ccccc1 (stereo partly specified)
- EC50 (Melanocortin receptor 4 [2]): 530 nM
- Emax (Melanocortin receptor 4 [2]): 26%
- Ki (Melanocortin receptor 4 [1]): 79 nM

Compound: O=C(Cc1ccccc1)NCC1(N2CCN(C(=O)[C@@H](Cc3ccc(Cl)cc3)NC(=O)CC3Cc4ccccc4CN3)CC2)CCCCC1 (stereo partly specified)
- EC50 (Melanocortin receptor 4 [2]): 37 nM
- Emax (Melanocortin receptor 4 [2]): 96%
- Ki (Melanocortin receptor 4 [1]): 16 nM

Compound: O=C(Cc1ccccc1)NCC1(N2CCN(C(=O)[C@@H](Cc3ccc(Cl)cc3)NC(=O)c3cnc4ccccc4c3)CC2)CCCCC1
- Ki (Melanocortin receptor 4 [1]): 61 nM

Compound: NC1(C(=O)N[C@H](Cc2ccc(Cl)cc2)C(=O)N2CCN(C3(CNC(=O)Cc4ccccc4)CCCCC3)CC2)CCc2ccccc2C1 (stereo partly specified)
- EC50 (Melanocortin receptor 4 [2]): 160 nM
- Emax (Melanocortin receptor 4 [2]): 87%
- Ki (Melanocortin receptor 4 [1]): 82 nM

Compound: NC(CC(=O)N[C@H](Cc1ccc(Cl)cc1)C(=O)N1CCN(C2(CNC(=O)Cc3ccccc3)CCCCC2)CC1)c1ccccc1 (stereo partly specified)
- EC50 (Melanocortin receptor 4 [2]): 270 nM
- Emax (Melanocortin receptor 4 [2]): 61%
- Ki (Melanocortin receptor 4 [1]): 42 nM

Compound: CCCCC(=O)N[C@H](Cc1ccc(Cl)cc1)C(=O)N1CCN(C2(CNC(=O)Cc3ccccc3)CCCCC2)CC1
- Ki (Melanocortin receptor 4 [1]): 150 nM

Compound: CN(C)CC(=O)N[C@H](Cc1ccc(Cl)cc1)C(=O)N1CCN(C2(CNC(=O)Cc3ccccc3)CCCCC2)CC1
- EC50 (Melanocortin receptor 4 [2]): 300 nM
- Emax (Melanocortin receptor 4 [2]): 63%
- Ki (Melanocortin receptor 4 [1]): 100 nM

Compound: O=C(Cc1ccccc1)NCC1(N2CCN(C(=O)[C@@H](Cc3ccc(Cl)cc3)NC(=O)c3cccnc3)CC2)CCCCC1
- Ki (Melanocortin receptor 4 [1]): 60 nM

Compound: NC(Cc1ccccc1)C(=O)N[C@H](Cc1ccc(Cl)cc1)C(=O)N1CCN(C2(CNC(=O)Cc3ccccc3)CCCCC2)CC1 (stereo partly specified)
- EC50 (Melanocortin receptor 4 [2]): 420 nM
- Emax (Melanocortin receptor 4 [2]): 62%
- Ki (Melanocortin receptor 4 [1]): 130 nM

Compound: O=C(Cc1ccccc1)NCC1(N2CCN(C(=O)[C@@H](Cc3ccc(Cl)cc3)NC(=O)C3CC3)CC2)CCCCC1
- Ki (Melanocortin receptor 4 [1]): 130 nM

Compound: O=C(Cc1ccccc1)NCC1(N2CCN(C(=O)[C@@H](Cc3ccc(Cl)cc3)NC(=O)C3CCCC3)CC2)CCCCC1
- Ki (Melanocortin receptor 4 [1]): 230 nM

Compound: O=C(Cc1ccccc1)NCC1(N2CCN(C(=O)[C@@H](Cc3ccc(Cl)cc3)NC(=O)[C@@H]3Cc4ccccc4CN3)CC2)CCCCC1
- EC50 (Melanocortin receptor 4 [2]): 46 nM
- Emax (Melanocortin receptor 4 [2]): 76%
- Ki (Melanocortin receptor 4 [1]): 11 nM

Compound: NC1(C(=O)N[C@H](Cc2ccc(Cl)cc2)C(=O)N2CCN(C3(CNC(=O)Cc4ccccc4)CCCCC3)CC2)Cc2ccccc2C1
- EC50 (Melanocortin receptor 4 [2]): 280 nM
- Emax (Melanocortin receptor 4 [2]): 49%
- Ki (Melanocortin receptor 4 [1]): 140 nM

Compound: CC(=O)N[C@H](Cc1ccc(Cl)cc1)C(=O)N1CCN(C2(CNC(=O)Cc3ccccc3)CCCCC2)CC1
- Ki (Melanocortin receptor 4 [1]): 110 nM

Compound: NC(Cc1ccncc1)C(=O)N[C@H](Cc1ccc(Cl)cc1)C(=O)N1CCN(C2(CNC(=O)Cc3ccccc3)CCCCC2)CC1 (stereo partly specified)
- EC50 (Melanocortin receptor 4 [2]): 590 nM
- Emax (Melanocortin receptor 4 [2]): 54%
- Ki (Melanocortin receptor 4 [1]): 120 nM

Compound: O=C(Cc1ccccc1)NCC1(N2CCN(C(=O)[C@@H](Cc3ccc(Cl)cc3)NC(=O)Cc3cccs3)CC2)CCCCC1
- Ki (Melanocortin receptor 4 [1]): 80 nM

Compound: NC1(C(=O)N[C@H](Cc2ccc(Cl)cc2)C(=O)N2CCN(C3(CNC(=O)Cc4ccccc4)CCCCC3)CC2)CCc2ccccc21 (stereo partly specified)
- EC50 (Melanocortin receptor 4 [2]): 810 nM
- Emax (Melanocortin receptor 4 [2]): 51%
- Ki (Melanocortin receptor 4 [1]): 260 nM

Compound: COCC(=O)N[C@H](Cc1ccc(Cl)cc1)C(=O)N1CCN(C2(CNC(=O)Cc3ccccc3)CCCCC2)CC1
- Ki (Melanocortin receptor 4 [1]): 170 nM

Compound: CC(C)C(=O)N[C@H](Cc1ccc(Cl)cc1)C(=O)N1CCN(C2(CNC(=O)Cc3ccccc3)CCCCC2)CC1
- Ki (Melanocortin receptor 4 [1]): 300 nM

Compound: O=C(Cc1ccccc1)NCC1(N2CCN(C(=O)[C@@H](Cc3ccc(Cl)cc3)NC(=O)c3ccco3)CC2)CCCCC1
- Ki (Melanocortin receptor 4 [1]): 100 nM

Compound: CCC(=O)N[C@H](Cc1ccc(Cl)cc1)C(=O)N1CCN(C2(CNC(=O)Cc3ccccc3)CCCCC2)CC1
- Ki (Melanocortin receptor 4 [1]): 160 nM

Compound: CCC(CC)C(=O)N[C@H](Cc1ccc(Cl)cc1)C(=O)N1CCN(C2(CNC(=O)Cc3ccccc3)CCCCC2)CC1
- Ki (Melanocortin receptor 4 [1]): 1000 nM
